Experimental data published in US20060122234A1, “Substituted thienyl-hydroxamic acids as histone deacetylase inhibitors” (Argenta Discovery Limited, priority 2002, published 2006).

Experiments:
[1] = test system: MCF-7 human mammary gland adenocarcinoma cells; assay: Cell proliferation assay (secondary assay), CyQUANT, MCF-7; format: cell-based; details: MCF7, MCF-7, 72h exposure, 0.1% DMSO
Experimental: (§1) Compounds are tested in a cell proliferation assay using the following cell lines:
Both cell lines are free of Mycoplasma contamination (PCR Mycoplasma Detection Set, Takara). MCF-7 are kept in MEM medium (Gibco) supplemented with 10% FCS and 1% Non Essential Amino Acids at 37° C. in a 5% CO2 humidified incubator.
(§2) Cells are seeded in 96-well plates at a density of 20,000 cells/ml (3,000 cells/well) and after 24 h they are exposed to different concentrations of compounds in 0.1% DMSO. Cells are grown for a further 72h, the media is removed and the cells are frozen at −80° C. for at least 30 minutes and lysed in a solution containing the CyQUANT dye. […] Therefore the fluorescence intensity is proportional to the number of cells present in each well and can be quantified using a multiwell fluorimeter by measuring the fluorescence of the solution at 520 nm.
(§3) The percent activity of the compounds in reducing cell number is calculated as follow: % activity={(A^S−B)/(A^C−B)}×100 where: […]
(§4) A^S is the fluorescence at 520 nm in the presence of the tested compound (Sample).
(§5) A^C is the fluorescence at 520 nm in the presence of vehicle 0.1% DMSO (Control).
(§6) B is the fluorescence at 520 nm in the absence of cells (Background fluorescence).
(§7) The IC50 is defined as the concentration at which a given compound achieves 50% activity. IC50 values are calculated using the XLfit software package (version 2.0.5).

[2] = test system: MDA-MB-231 human mammary gland adenocarcinoma cells; assay: Cell proliferation assay (secondary assay), CyQUANT, MDA-MB-231; format: cell-based; details: MDA-MB-231, 72h exposure, 0.1% DMSO
Experimental: as §1
MDA-MB-231 are kept in L-15 (Leibovitz) medium (Gibco) supplemented with 15% FCS at 37° C. in a non-modified atmosphere, humidified incubator.
as §2, §3, §4, §5, §6, §7

[3] = test system: histone deacetylase activity (total lysates from K562 cells or HeLa nuclear extracts); assay: Deacetylase assay (primary assay), fluorescent acetylated-lysine substrate; format: biochemical, human; details: 30 minutes, 116 μM fluorescent substrate, 1% DMSO; read-out: IC50 (histone deacetylase enzymatic activity)
Experimental: Compounds are tested for their capacity to inhibit histone deacetylase activity (primary assay) and for their biological effects on growing cells (secondary assay).
Total lysates from K562 chronic human myelogenous leukemia cells (obtained from American Type Culture Collection, Rockville, Md.) are used as source of HDAC activity. Cells are grown in RPMI media supplied with 10% FCS, harvested by centrifugation, washed once in PBS and resuspended at a density of 24×10^6/ml in HDA buffer (15 mM Potassium phosphate pH 7.5, 5% glycerol, 0.2 mM EDTA). After sonication, lysates are centrifuged at 1000 g for 20 minutes and the resulting supernatant is aliquoted and stored at −80° C. Alternatively, commercially available HeLa nuclear extracts (BIOMOL) are used as source of histone deacetylase activity.
The assay was carried out for 30 minutes using 116 μM of a fluorescent substrate containing an acetylated lysine (BIOMOL). When deacetylation of the lysine occurs, the substrate can react with the added developer producing a fluorophore. The amount of fluorophore produced is proportional to the HDAC activity in the sample and is quantified using a multiwell fluorimeter capable of excitation at 360 nm and detection at 450 nm.
Compounds are diluted in DMSO prior to addition to assay buffer, the final DMSO concentration in the assay being 1%.
The percent activity of the compounds in reducing histone deacetylase enzymatic activity is calculated as follow: % activity={(F^S−B)/(F^C−B)}×100 where: […]
F^S is the fluorescence at 450 nm in the presence of the tested compound (Sample).
F^C is the fluorescence at 450 nm in the presence of vehicle 1% DMSO (Control). B is the fluorescence at 450 nm in the absence of enzyme (Background fluorescence)
as §7

SMILES | IC50 [1] [nM] | IC50 [2] [nM] | IC50 [3] [nM]
Cn1nc(C(F)(F)F)cc1-c1ccc(C(=O)NO)s1 [Example 1 (a), 5-(2-Methyl-5-trifluoromethyl-2H-pyrazol-3-yl)-thiophene-2-carboxylic acid hydroxyamide] | 11000 | 32000 | 
O=C(NO)c1ccc(-c2ccc(NCc3cc4ccccc4o3)cn2)s1 [Example 1 (ba), 5-{5-[(Benzofuran-2-ylmethyl)-amino]-pyridin-2-yl}-thiophene-2-carboxylic acid hydroxyamide] | 600 | 2000 | 62
NS(=O)(=O)c1cccc(NC(=O)Cn2ccc(-c3ccc(C(=O)NO)s3)n2)c1 [Example 1 (dc), 5-{1-[(3-Sulfamoyl-phenylcarbamoyl)-methyl]-1H-pyrazol-3-yl}-thiophene-2-carboxylic acid hydroxyamide] |  |  | 242
O=C(NO)c1ccc(-c2ccccc2)s1 [Example 1 (g), 5-Phenyl-thiophene-2-carboxylic acid hydroxyamide] | 31000 | 44000 | 900
O=C(NO)c1ccc(-c2ccn(Cc3ccccc3)n2)s1 [Example 1 (l), 5-(1-Benzyl-1H-pyrazol-3-yl)-thiophene-2-carboxylic acid hydroxyamide] | 2100 | 4500 | 153
O=C(NO)c1ccc(-c2nccc(OCc3ccccc3)n2)s1 [Example 1 (z), 5-(4-Benzyloxy-pyrimidin-2-yl)-thiophene-2-carboxylic acid hydroxyamide] | 2300 | 7300 | 76
